According to patent US11478008B2, “Formulations comprising ratfish liver oil or a product of an enzymatic or chemical glycerolysis processing of ratfish liver oil and supercritical rosemary extract and uses thereof” (UNIVERSIDAD AUTÓNOMA DE MADRID, priority 2016, dated 2022):

Test system: human pancreatic cancer cell cultures (line MiaPaca-2)
Experiment: MTT cell viability assay, human pancreatic cancer cells MiaPaca-2
Type: cell-based
Conditions: 1%
Experimental: The antiproliferative activity of the lipid systems (RLO, RLO+MO and GP), formulations with incorporated SRE (RLO+MO+9% SRE and GP+9% SRE) and (digested and non-digested) non-delivered SRE was evaluated in human pancreatic cancer cell cultures (line MiaPaca-2) by means of the MTT method.
Three independent experiments were performed with different cell strains and on different days. The trend observed in terms of the effect of treatments on cell viability was similar in the 3 experiments.
The parameter used to assess the effect of a compound on cell viability is the mean inhibitory concentration (IC50), which is the product concentration inhibiting cell viability by 50%, such that the lower the IC50 of a compound is, the greater its effect will be.

In the case of `O=C1CCCC1` [cyclopentanone], the “viability of treated cells” value is reported as “did not change”.
